Measured values reported in ChEMBL document CHEMBL5625159, “Challenges for the development of mutant isocitrate dehydrogenases 1 inhibitors to treat glioma” (Eur J Med Chem, 2023).

Key:
[1] = biological target: T1, Isocitrate dehydrogenase [NADP] cytoplasmic (Homo sapiens, UniProt O75874, R132C); test: Inhibition of C-terminal Hexahistidine-tagged human recombinant IDH1 R132C mutant expressed in Escherichia coli BL21 (DE3) cells assessed as NADPH consumption in presence of alpha KG incubated for 1 hr by MST assay
T1 sequence (O75874 2-414 R132C limits assumed): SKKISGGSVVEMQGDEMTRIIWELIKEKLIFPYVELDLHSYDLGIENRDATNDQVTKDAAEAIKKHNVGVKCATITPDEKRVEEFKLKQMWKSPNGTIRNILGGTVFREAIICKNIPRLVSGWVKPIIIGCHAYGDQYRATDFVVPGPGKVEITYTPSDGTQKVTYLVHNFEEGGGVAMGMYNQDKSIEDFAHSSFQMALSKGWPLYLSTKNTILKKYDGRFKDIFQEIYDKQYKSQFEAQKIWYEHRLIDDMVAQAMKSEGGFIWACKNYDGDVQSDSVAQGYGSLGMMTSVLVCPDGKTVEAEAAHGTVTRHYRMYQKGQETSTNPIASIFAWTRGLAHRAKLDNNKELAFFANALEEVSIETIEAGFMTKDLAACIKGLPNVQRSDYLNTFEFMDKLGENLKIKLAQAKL

[2] = biological target: T2, Isocitrate dehydrogenase [NADP] cytoplasmic (Homo sapiens, UniProt O75874, R132H); test: Inhibition of C-terminal Hexahistidine-tagged human recombinant IDH1 R132H mutant expressed in Escherichia coli BL21 (DE3) cells assessed as NADPH consumption in presence of alpha KG incubated for 1 hr by MST assay
T2 sequence (O75874 2-414 R132H limits assumed): as the sequence (O75874 2-414 R132C limits assumed) above, with C131H counted along it

[3] = biological target: T3, Isocitrate dehydrogenase [NADP] cytoplasmic (Homo sapiens, UniProt O75874); test: Inhibition of N-terminal His-tagged wild type IDH1 (unknown origin)
T3 sequence (O75874 whole entry): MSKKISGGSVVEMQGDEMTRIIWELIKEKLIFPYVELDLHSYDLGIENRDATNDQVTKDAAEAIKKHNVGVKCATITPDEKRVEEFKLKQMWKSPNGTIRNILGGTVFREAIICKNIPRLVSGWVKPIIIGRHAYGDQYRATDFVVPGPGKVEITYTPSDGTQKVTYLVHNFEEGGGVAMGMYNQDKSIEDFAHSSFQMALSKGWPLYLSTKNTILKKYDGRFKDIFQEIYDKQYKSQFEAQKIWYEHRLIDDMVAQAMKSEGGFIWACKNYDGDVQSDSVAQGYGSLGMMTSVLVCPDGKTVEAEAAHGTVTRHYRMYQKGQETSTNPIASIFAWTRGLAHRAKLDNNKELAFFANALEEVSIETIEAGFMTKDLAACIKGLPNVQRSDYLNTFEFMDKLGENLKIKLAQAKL

[4] = biological target: T2, Isocitrate dehydrogenase [NADP] cytoplasmic; test: Inhibition of human recombinant IDH1 R132H mutant expressed in Escherichia coli BL21 (DE3) cells in presence of alpha-ketoglutarate and NADPH by fluorescence based biochemical assay
[5] = biological target: T2, Isocitrate dehydrogenase [NADP] cytoplasmic; test: Inhibition of wildtype human recombinant IDH1 R132H mutant heterodimer in presence of alpha-ketoglutarate and NADPH by fluorescence based biochemical assay
[6] = biological target: T1, Isocitrate dehydrogenase [NADP] cytoplasmic; test: Inhibition of human N-terminal 6His-tagged IDH1 R132C mutant expressed in Escherichia coli Rosetta2 (DE3) in presence of alpha-ketoglutarate and NADPH by fluorescence based biochemical assay
[7] = biological target: T3, Isocitrate dehydrogenase [NADP] cytoplasmic; test: Inhibition of wild type IDH1 (unknown origin)
[8] = biological target: T2, Isocitrate dehydrogenase [NADP] cytoplasmic; test: Binding affinity to human recombinant IDH1 R132H mutant expressed in Escherichia coli BL21 (DE3) cells assessed as inhibition constant
[9] = biological target: T2, Isocitrate dehydrogenase [NADP] cytoplasmic; test: Inhibition of human IDH1 R132H mutant
[10] = Brain to plasma ratio in mouse at 50 mg/kg, iv; assay type: ADME, organism-based; conditions: brain and plasma, read-out: BPR
[11] = biological target: T4, Isocitrate dehydrogenase [NADP], mitochondrial (Homo sapiens, UniProt P48735); test: Inhibition of wildtype IDH2 (unknown origin)
T4 sequence (P48735 whole entry): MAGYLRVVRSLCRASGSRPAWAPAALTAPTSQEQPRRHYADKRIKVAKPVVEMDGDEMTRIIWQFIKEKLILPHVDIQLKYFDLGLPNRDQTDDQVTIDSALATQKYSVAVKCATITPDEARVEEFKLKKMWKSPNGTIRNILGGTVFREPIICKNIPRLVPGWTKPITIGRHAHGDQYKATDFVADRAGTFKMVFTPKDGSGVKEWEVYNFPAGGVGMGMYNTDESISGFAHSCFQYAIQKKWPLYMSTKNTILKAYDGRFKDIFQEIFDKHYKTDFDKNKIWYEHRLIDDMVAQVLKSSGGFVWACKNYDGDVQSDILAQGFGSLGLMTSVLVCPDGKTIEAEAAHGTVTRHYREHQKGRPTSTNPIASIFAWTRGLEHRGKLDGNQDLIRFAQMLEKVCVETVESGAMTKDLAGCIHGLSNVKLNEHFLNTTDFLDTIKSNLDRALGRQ

[12] = biological target: Isocitrate dehydrogenase [NADP], mitochondrial (Homo sapiens, UniProt P48735, R140Q); test: Inhibition of IDH2 R140Q mutant (unknown origin) in the presence of NADPH by fluorescence based analysis
Isocitrate dehydrogenase [NADP], mitochondrial (Homo sapiens, UniProt P48735, R140Q), sequence (P48735 40-452 R140Q limits assumed): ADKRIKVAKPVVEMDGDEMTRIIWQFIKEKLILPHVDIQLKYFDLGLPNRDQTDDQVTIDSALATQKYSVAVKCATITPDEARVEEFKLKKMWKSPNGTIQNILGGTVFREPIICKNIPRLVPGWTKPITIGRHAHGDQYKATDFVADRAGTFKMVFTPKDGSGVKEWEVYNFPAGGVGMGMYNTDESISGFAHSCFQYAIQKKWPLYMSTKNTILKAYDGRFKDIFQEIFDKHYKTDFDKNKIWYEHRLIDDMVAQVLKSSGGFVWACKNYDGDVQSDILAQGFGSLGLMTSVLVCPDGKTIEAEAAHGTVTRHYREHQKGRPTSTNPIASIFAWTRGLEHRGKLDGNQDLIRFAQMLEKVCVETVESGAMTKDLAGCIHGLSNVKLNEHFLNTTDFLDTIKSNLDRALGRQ

[13] = biological target: T3, Isocitrate dehydrogenase [NADP] cytoplasmic; test: Inhibition of human recombinant wildtype IDH1
[14] = biological target: T1, Isocitrate dehydrogenase [NADP] cytoplasmic; test: Inhibition of IDH1 R132C mutant (unknown origin) expressed in Escherichia coli BL21 (DE3) cells
[15] = biological target: T3, Isocitrate dehydrogenase [NADP] cytoplasmic; test: Inhibition of IDH1 (unknown origin) expressed in Escherichia coli BL21 (DE3) cells using 2OG as substrate preincubated with compound for 2 hrs followed by substrate addition and measured after 1 hrs by spectrophotometric analysis
[16] = biological target: T1, Isocitrate dehydrogenase [NADP] cytoplasmic; test: Inhibition of human […] IDH1 R132C mutant expressed in Escherichia coli BL21 (DE3) cells incubated for 60 mins by fluorescence based analysis
[17] = biological target: T2, Isocitrate dehydrogenase [NADP] cytoplasmic; test: Inhibition of human […] IDH1 R132H mutant expressed in Escherichia coli BL21 (DE3) cells incubated for 60 mins by fluorescence based analysis
[18] = Selectivity index, ratio of IC50 for inhibition of wildtype IDH2 (unknown origin) to IC50 for inhibition of IDH2 R140Q mutant (unknown origin)
TF-1 = test: Anticancer activity against human TF-1 cells assessed as cell growth inhibition; assay type: functional, cell-based
[19] = biological target: T2, Isocitrate dehydrogenase [NADP] cytoplasmic; test: Inhibition of IDH1 R132H mutant (unknown origin) expressed in HEK293T cells assessed as inhibition of 2-HG generation measured after 48 hrs by LC-MS/MS analysis; assay type: cell-based
[20] = biological target: T1, Isocitrate dehydrogenase [NADP] cytoplasmic; test: Inhibition of IDH1 R132C mutant (unknown origin) expressed in HEK293T cells assessed as inhibition of 2-HG generation measured after 48 hrs by LC-MS/MS analysis; assay type: cell-based
[21] = biological target: T2, Isocitrate dehydrogenase [NADP] cytoplasmic; test: Inhibition of N-terminal 6xHis-tagged IDH1 R132H mutant (unknown origin) expressed in Escherichia coli BL21 cells
U-87 MG [22] = test: Antiproliferative activity against human U-87 MG cells assessed as reduction in cell growth by CCK-8 assay; assay type: functional, cell-based, U-87MG ATCC
HT-1080 [23] = test: Antiproliferative activity against human HT-1080 cells harboring IDH1 […] mutant measured after 72 hrs by MTT assay; assay type: functional, cell-based; conditions: HT-1080, 72 h
U-87 MG [24] = test: Antiproliferative activity against human U-87 MG cells harboring IDH1 R132H mutant measured after 72 hrs by MTT assay; assay type: functional, cell-based, U-87MG ATCC
HT-1080 [25] = test: Antiproliferative activity against human HT-1080 cells assessed as cell growth inhibition incubated for 48 hrs by sulforhodamine B assay; assay type: functional, cell-based; conditions: HT-1080, 48 h

SMILES: CCN(CC)CCOc1ccc(/C(=C(\Cl)c2ccccc2)c2ccccc2)cc1 [ZUCLOMIPHENE]
- IC50 [1]: 42.3 µM
- IC50 [2]: 50.2 µM

SMILES: COc1c(C)cc(NC(=O)c2nn(Cc3ccc(F)cc3)c3c2CN(C(=O)c2ccc[nH]2)C[C@@H]3C(N)=O)cc1C
- IC50 [3]: 0.467 µM
- IC50 [4]: 0.0152 µM
- IC50 [5]: 0.0166 µM
- IC50 [6]: 0.0088 µM

SMILES: C=CC(C)(C)c1cc(/C=C/C(=O)c2ccc(O)cc2)c(OC)cc1O [LICOAGROCHACONE A]
- IC50 [7]: > 100 µM
- Ki [8]: 76.9 µM

SMILES: Cc1cn(C(=O)c2c(-c3c(Cl)cc(Cl)cc3Cl)noc2C(C)(C)F)c2cccc(/C=C/C(=O)O)c12 [SAFUSIDENIB]
- IC50 [9]: 0.0084 µM
- Kp [10]: 0.4
- IC50 [11]: > 10 µM
- IC50 [12]: > 10 µM
- IC50 [13]: 0.18 µM
- IC50 [14]: 0.011 µM
- IC50 [15]: > 10 µM
- IC50 [16]: 0.011 µM
- IC50 [17]: 0.0084 µM
- Ratio IC50 [18]: < 0.001
- IC50 (TF-1): 0.029 µM

SMILES: COC(=O)C1CCC2=C(C1=O)C(c1c[nH]c3ccccc13)Nc1ccccc1N2 (configuration not stated)
- IC50 [19]: 55.5 µM
- IC50 [20]: 65.4 µM

SMILES: CC(C)(O)CNc1nc(Nc2ccnc(C(F)(F)F)c2)nc(-c2cccc(C(F)(F)F)n2)n1 [ENASIDENIB]
- IC50 [21]: 0.677 µM

SMILES: N#Cc1ccnc(N2C(=O)CC[C@H]2C(=O)N(c2cncc(F)c2)[C@H](C(=O)NC2CC(F)(F)C2)c2ccccc2Cl)c1 [IVOSIDENIB]
- IC50 (U-87 MG [22]): 0.019 µM
- IC50 [11]: 7.2 µM
- IC50 (HT-1080 [23]): 0.008 µM
- IC50 (U-87 MG [24]): 0.019 µM
- IC50 (HT-1080 [25]): 0.008 µM
